From US20080171783A1, “COMPOSITIONS AND METHODS FOR TREATING HYPERPROLIFERATIVE DISEASE” (Migenix Inc., priority 2006, published 2008)

Legend:
HCC-2998 = experiment: NCI In Vitro Cell Line Screening (SRB); format: cell-based; conditions: HCC-2998, Colon Cancer, 48 h; for GI50 / LC50 (lethal concentration, 50% cell kill): Homo sapiens
T-47D = experiment: NCI In Vitro Cell Line Screening (SRB); format: cell-based, human; conditions: Breast Cancer, 48 h
[1] = system: 5 Leukemia and 5 Colon Cancer Cell Lines; experiment: Cell viability by XTT, cell line panel; format: cell-based; conditions: for Range (Percentage of Control over the same 10 cell lines): 10 μM, lowest to highest of the ten cell lines; for viability at 10 µM: average of the ten Percentage of Control values, read-out: ARF (Average Response Factor, Average Percentage of Control)
Method in brief: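 Leukemia and colon cancer lines in exponential growth were exposed to compounds for four days at 37 °C/5% CO2, with colon lines allowed overnight adherence beforehand. Viability read by XTT/PMS reduction (4 h) at 450/650 nm; percent of control at 10 μM averaged over ten lines as ARF.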

MALME-3M = experiment: NCI In Vitro Cell Line Screening (SRB); format: cell-based, human; conditions: Melanoma, 48 h; for GI50 / CC50: Homo sapiens; for CC50: read-out: LC50 (the source's name)
UO-31 = experiment: NCI In Vitro Cell Line Screening (SRB); format: cell-based, human; conditions: UO-31, Renal Cancer, 48 h; for GI50 / CC50: Homo sapiens; for CC50: read-out: LC50 (the source's name)
OVCAR-3 = experiment: NCI In Vitro Cell Line Screening (SRB); conditions: for GI50 / CC50: Homo sapiens, OVCAR-3, 48 h; for CC50: read-out: LC50; for TGI: OVCAR-3, Ovarian Cancer, 48 h
MCF7 = experiment: NCI In Vitro Cell Line Screening (SRB); format: cell-based, human; conditions: MCF7, Breast Cancer, 48 h; for GI50 / CC50: Homo sapiens; for CC50: read-out: LC50 (the source's name)
NCI-H23 = experiment: NCI In Vitro Cell Line Screening (SRB); format: cell-based; conditions: NCI-H23, Non-Small Cell Lung Cancer, 48 h
MOLT-4 = experiment: NCI In Vitro Cell Line Screening (SRB); format: cell-based, human; conditions: MOLT-4, Leukemia, 48 h
TK-10 = experiment: NCI In Vitro Cell Line Screening (SRB); format: cell-based, human; conditions: TK-10, Renal Cancer, 48 h; for GI50 / CC50: Homo sapiens; for CC50: read-out: LC50 (the source's name)
MDA-MB-231/ATCC = experiment: NCI In Vitro Cell Line Screening (SRB); format: cell-based, human; conditions: Breast Cancer, 48 h; for GI50 / CC50: Homo sapiens; for CC50: read-out: LC50 (the source's name)
NCI/ADR-RES = experiment: NCI In Vitro Cell Line Screening (SRB); format: cell-based, human; conditions: Breast Cancer, 48 h; for GI50 / CC50: Homo sapiens; for CC50: read-out: LC50 (the source's name)
MDA-MB-435 = experiment: NCI In Vitro Cell Line Screening (SRB); format: cell-based, human; conditions: MDA-MB-435, Breast Cancer, 48 h; for GI50 / CC50: Homo sapiens; for CC50: read-out: LC50 (the source's name)
A498 = experiment: NCI In Vitro Cell Line Screening (SRB); format: cell-based, human; conditions: A498, Renal Cancer, 48 h; for GI50 / CC50: Homo sapiens; for CC50: read-out: LC50 (the source's name)
HT29 = experiment: NCI In Vitro Cell Line Screening (SRB); format: cell-based; conditions: HT29, Colon Cancer, 48 h; for GI50 / CC50: Homo sapiens, HT-29; for CC50: read-out: LC50 (the source's name)
NCI-H460 = experiment: NCI In Vitro Cell Line Screening (SRB); format: cell-based, human; conditions: NCI-H460, Non-Small Cell Lung Cancer, 48 h; for GI50 / CC50: Homo sapiens; for CC50: read-out: LC50 (the source's name)
PC-3 = experiment: NCI In Vitro Cell Line Screening (SRB); format: cell-based, human; conditions: PC-3, Prostate Cancer, 48 h; for GI50 / CC50: Homo sapiens; for CC50: read-out: LC50 (the source's name)
SF-268 = experiment: NCI In Vitro Cell Line Screening (SRB); format: cell-based, human; conditions: SF-268, CNS Cancer, 48 h; for GI50 / LC50: Homo sapiens
SNB-75 = experiment: NCI In Vitro Cell Line Screening (SRB); format: cell-based, human; conditions: SNB-75, CNS Cancer, 48 h; for GI50 / CC50: Homo sapiens; for CC50: read-out: LC50 (the source's name)

Structure (SMILES): CC(C)(C)c1ccc(NC(=O)[C@H](CCCCN)NC(=O)OCC2c3ccccc3-c3ccccc32)cc1 [Compound 105, (S)-[5-AMINO-1-(4-TERT-BUTYL-PHENYLCARBAMOYL)-PENTYL]-CARBAMIC ACID 9H-FLUOREN-9-YLMETHYL ESTER]
- TGI (HCC-2998): 2.88 µM
- GI50 (HCC-2998): 1.39 µM
- LC50 (lethal concentration, 50% cell kill) (HCC-2998): 5.96 µM
- TGI (T-47D): 3.08 µM
- GI50 (T-47D; Homo sapiens, T47D): 1.45 µM
- Range (Percentage of Control over the same 10 cell lines) [1]: 0 to 110.8%
- viability at 10 µM [1]: 53.4%
- GI50 (MALME-3M): 15.6 µM
- CC50 (MALME-3M): 89.5 µM
- TGI (MALME-3M): 37.4 µM
- GI50 (UO-31): 1.58 µM
- CC50 (UO-31): 6.76 µM
- TGI (UO-31): 3.27 µM
- GI50 (OVCAR-3): 16.1 µM
- CC50 (OVCAR-3): 56.3 µM
- TGI (OVCAR-3): 30.1 µM
- GI50 (MCF7): 0.546 µM
- CC50 (MCF7): 4.75 µM
- TGI (MCF7): 1.91 µM
- LC50 (concentration giving 50% net cell kill) (NCI-H23; Homo sapiens): 5.47 µM
- TGI (NCI-H23): 1.95 µM
- GI50 (MOLT-4; Homo sapiens): 1.66 µM
- TGI (MOLT-4): 3.42 µM
- GI50 (TK-10): 14.1 µM
- CC50 (TK-10): 82.9 µM
- TGI (TK-10): 34.1 µM
- TGI (MDA-MB-231/ATCC): 26.8 µM
- GI50 (MDA-MB-231/ATCC): 11.1 µM
- CC50 (MDA-MB-231/ATCC): 64.7 µM
- TGI (NCI/ADR-RES): 1.1 µM
- GI50 (NCI/ADR-RES): < 0.01 µM
- CC50 (NCI/ADR-RES): 30.5 µM
- GI50 (MDA-MB-435): 4.27 µM
- CC50 (MDA-MB-435): 87.1 µM
- TGI (MDA-MB-435): 21.7 µM
- TGI (A498): 0.665 µM
- GI50 (A498): 0.116 µM
- CC50 (A498): 15.5 µM
- GI50 (HT29): 0.733 µM
- CC50 (HT29): > 100 µM
- GI50 (NCI-H460): 1.13 µM
- CC50 (NCI-H460): 5.37 µM
- TGI (NCI-H460): 2.47 µM
- GI50 (PC-3): 1.73 µM
- CC50 (PC-3): 6.41 µM
- TGI (PC-3): 3.33 µM
- GI50 (SF-268): 17 µM
- LC50 (SF-268): 58.3 µM
- TGI (SF-268): 31.5 µM
- GI50 (SNB-75): 1.29 µM
- CC50 (SNB-75): 5.97 µM
- TGI (SNB-75): 2.78 µM

Structure (SMILES): Cc1ccc(NC(=O)[C@@H](CCCCN)NC(=O)Nc2ccc3c(c2)Cc2ccccc2-3)cc1 [Compound 173, (R)-6-AMINO-2-[3-(9H-FLUOREN-2-YL)-UREIDO]-HEXANOIC ACID P-TOLYLAMIDE]
- TGI (HCC-2998): 4.88 µM
- GI50 (HCC-2998): 2.22 µM
- LC50 (lethal concentration, 50% cell kill) (HCC-2998): 17.5 µM
- TGI (T-47D): 3.78 µM
- GI50 (T-47D; Homo sapiens, T47D): 1.7 µM
- CC50 (T-47D; Homo sapiens, T47D, read-out: LC50 (the source's name)): 8.41 µM
- Range (Percentage of Control over the same 10 cell lines) [1]: 4.3 to 108.6%
- viability at 10 µM [1]: 76.8%
- GI50 (MALME-3M): 1.55 µM
- CC50 (MALME-3M): 8.23 µM
- TGI (MALME-3M): 3.57 µM
- GI50 (UO-31): > 100 µM
- CC50 (UO-31): > 100 µM
- TGI (UO-31): >100 µM
- GI50 (OVCAR-3): 1.31 µM
- CC50 (OVCAR-3): 31.6 µM
- TGI (OVCAR-3): 9.94 µM
- GI50 (MCF7): 1.45 µM
- CC50 (MCF7): 5.29 µM
- TGI (MCF7): 2.77 µM
- GI50 (NCI-H23; Homo sapiens): 3.45 µM
- LC50 (concentration giving 50% net cell kill) (NCI-H23; Homo sapiens): > 100 µM
- TGI (NCI-H23): 19.6 µM
- GI50 (MOLT-4; Homo sapiens): 1.93 µM
- CC50 (MOLT-4; Homo sapiens, read-out: LC50 (the source's name)): 17.5 µM
- TGI (MOLT-4): 4.43 µM
- GI50 (TK-10): 3.59 µM
- CC50 (TK-10): 55.4 µM
- TGI (TK-10): 17.6 µM
- TGI (MDA-MB-231/ATCC): 2.57 µM
- GI50 (MDA-MB-231/ATCC): 1.26 µM
- CC50 (MDA-MB-231/ATCC): 5.24 µM
- TGI (NCI/ADR-RES): >100 µM
- GI50 (NCI/ADR-RES): > 100 µM
- CC50 (NCI/ADR-RES): > 100 µM
- GI50 (MDA-MB-435): 1.98 µM
- CC50 (MDA-MB-435): 24.3 µM
- TGI (MDA-MB-435): 6.21 µM
- TGI (A498): 8.26 µM
- GI50 (A498): 1.99 µM
- CC50 (A498): 37.9 µM
- TGI (HT29): >100 µM
- GI50 (HT29): 3.64 µM
- CC50 (HT29): > 100 µM
- GI50 (NCI-H460): 1.86 µM
- CC50 (NCI-H460): 6.33 µM
- TGI (NCI-H460): 3.43 µM
- GI50 (PC-3): 2.78 µM
- CC50 (PC-3): 44.5 µM
- TGI (PC-3): 11.0 µM
- GI50 (SF-268): 7.37 µM
- LC50 (SF-268): 51 µM
- TGI (SF-268): 21.8 µM
- GI50 (SNB-75): 1.61 µM
- CC50 (SNB-75): > 100 µM
- TGI (SNB-75): 4.65 µM
